Measured values: publication PMC8050276, “Estradiol analogs attenuate autophagy, cell migration and invasion by direct and selective inhibition of TRPML1, independent of estrogen receptors” (Scientific Reports, 2021)
Values joined by “and” are separate entries in the source; they are usually repeats but may differ in a detail not shown here. Identical values can stand only once.

What was measured:
[1] = molecular target: T1, hTRPML3-YFP (Homo sapiens, UniProt Q8TDD5); test: Fluo-4 Ca2+ influx assay, HEK293 stably expressing hTRPML3-YFP, activated with ML-SA1; assay type: cell-based; conditions: 12.5 µM compound, 5 µM ML-SA1, Fig. 1f
T1 construct: expressed in transfected cells
Description: (§1) To identify inhibitors of TRPML1 and TRPML3, the Spectrum Collection compound library (MS Discoveries; 2000 compounds) and additional 430 bioactive compounds were screened. To this end, fluorometric Ca^2+ influx assays were performed by using the calcium dye Fluo-4/AM (Invitrogen, Thermo Fisher Scientific, Waltham, MA, USA) and a custom-made fluorescence imaging plate reader built into a robotic liquid handling station (Freedom Evo 150, Tecan, Männedorf, Switzerland). All measurements were done in a HEPES buffered solution (HBS), containing 132 mM NaCl, 6 mM KCl, 1 mM MgCl2, 1 mM CaCl2, 5.5 mM D-glucose, 10 mM HEPES, pH 7.4. Screening compounds dissolved in DMSO (10 mM) were prediluted in 150 mM NaCl, 20 mM HEPES, pH 7.4, to a concentration of 200 µM. For primary screens, HEK293 stably expressing plasma membrane-targeted TRPML1 or TRPML3 were trypsinized and resuspended in cell culture medium supplemented with 4 µM Fluo-4/AM. After incubation at 37 °C for 30 min, the cell suspension was briefly centrifuged resuspended in HBS, and dispensed into black pigmented, clear-bottom 384-well microwell plates (Greiner μClear, Frickenhausen, Germany). Plates were placed into the FLIPR and fluorescence signals (excitation 470 nm, emission 515 nm) were recorded with a Zyla 5.5 camera (Andor, Belfast, UK) and the μManager software like previously described. In a first video, compound libraries were successively added to the cells with the Tecan 96-tip multichannel arm to a final concentration of 20 µM to map unspecific effects like autofluorescence or toxicity. In a second step the agonist ML-SA1 was pipetted in each well and fluorescence signals were recorded for 10 min. Analyses were done by calculating fluorescence intensities for each well and background areas with ImageJ (National Institutes of Health, Bethesda, MD, USA). Finally, the background was subtracted and the fluorescence intensities were normalized to initial intensities (F/F0). Concentration response curves were generated by the same procedure but compounds were manually prediluted in 96-well plates containing HBS, now supplemented with 0.1% bovine serum albumin. Here data was fitted to a four-parameter Hill equation to obtain Imin, Imax, IC50), and the Hill coefficient n.

[2] = molecular target: hTRPML1∆NC-YFP (Homo sapiens, UniProt Q9GZU1); assay type: cell-based; conditions: for inhibitory effect on TRPML1: 12.5 µM compound, 5 µM ML-SA1, Fig. 1f; for IC50: read-out: TRPML1 IC50, concentration-response retest of screening hits and steroids, Fluo-4, 5 µM ML-SA1, Fig. 1b-e, S1; for TRPML1-inhibitory activity, SAR summary: random screening or consecutive experiments
Description: as §1, with “All measurements were done in a HEPES buffered solution (HBS), containing 132 mM NaCl, 6 mM KCl, 1 mM MgCl2, 1 mM CaCl2, 5.5 mM D-glucose, 10 mM HEPES, pH 7.4.” left out

[3] = system: hTRPML1∆NC-YFP; assay type: cell-based, human; conditions: for primary screen result: 20 µM compound, 5 µM ML-SA1, TRPML1 and TRPML3; for TRPML1 versus TRPML3 selectivity: Fluo-4, TRPML1 vs TRPML3, 5 µM ML-SA1
Description: as §1, with “All measurements were done in a HEPES buffered solution (HBS), containing 132 mM NaCl, 6 mM KCl, 1 mM MgCl2, 1 mM CaCl2, 5.5 mM D-glucose, 10 mM HEPES, pH 7.4.” left out

T1 sequence (Q8TDD5 whole entry): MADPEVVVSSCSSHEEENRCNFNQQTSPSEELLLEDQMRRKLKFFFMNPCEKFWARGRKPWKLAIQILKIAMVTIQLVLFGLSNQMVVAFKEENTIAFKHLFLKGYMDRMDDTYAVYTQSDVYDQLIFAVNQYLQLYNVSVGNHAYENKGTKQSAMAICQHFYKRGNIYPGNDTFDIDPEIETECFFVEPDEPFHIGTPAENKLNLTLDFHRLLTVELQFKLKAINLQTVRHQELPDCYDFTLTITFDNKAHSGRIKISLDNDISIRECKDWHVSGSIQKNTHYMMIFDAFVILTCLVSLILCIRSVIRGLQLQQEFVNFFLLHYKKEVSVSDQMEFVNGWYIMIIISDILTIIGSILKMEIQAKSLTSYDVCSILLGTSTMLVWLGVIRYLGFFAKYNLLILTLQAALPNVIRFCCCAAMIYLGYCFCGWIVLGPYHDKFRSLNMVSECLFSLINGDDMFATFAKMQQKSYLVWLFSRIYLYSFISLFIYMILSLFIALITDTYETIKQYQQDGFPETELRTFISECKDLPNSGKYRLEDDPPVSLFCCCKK
hTRPML1∆NC-YFP (Homo sapiens, UniProt Q9GZU1), sequence (Q9GZU1 whole entry): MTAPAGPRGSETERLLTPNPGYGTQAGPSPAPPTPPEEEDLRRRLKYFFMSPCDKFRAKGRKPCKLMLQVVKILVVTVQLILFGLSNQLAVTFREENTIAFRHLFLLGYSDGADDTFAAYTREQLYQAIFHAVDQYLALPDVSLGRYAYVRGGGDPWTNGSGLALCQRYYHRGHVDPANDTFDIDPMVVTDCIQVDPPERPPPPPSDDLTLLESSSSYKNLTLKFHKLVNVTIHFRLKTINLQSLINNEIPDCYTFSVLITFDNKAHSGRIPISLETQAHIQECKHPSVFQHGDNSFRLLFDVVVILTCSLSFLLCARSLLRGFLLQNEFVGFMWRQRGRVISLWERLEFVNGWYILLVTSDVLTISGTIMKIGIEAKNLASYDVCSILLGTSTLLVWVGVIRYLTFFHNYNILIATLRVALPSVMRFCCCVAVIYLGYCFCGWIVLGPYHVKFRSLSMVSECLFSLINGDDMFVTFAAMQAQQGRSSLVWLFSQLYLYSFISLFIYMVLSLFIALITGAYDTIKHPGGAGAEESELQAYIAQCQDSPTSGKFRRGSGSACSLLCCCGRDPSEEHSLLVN

In the case of C#CC1(O)CC[C@H]2[C@@H]3CCC4=CC(=O)CC[C@@H]4[C@H]3CC[C@@]21CC (mixture of isomers) [norgestrel, reference compound], the “inhibitory effect on TRPML3” value [1] is reported as “no effect” and the “inhibitory effect on TRPML1” value [2] is reported as “no effect”.
For CC(=O)O[C@@H]1C=C[C@]2(C)C(C[C@@H](OC(C)=O)[C@]3(C)C4=CC(=O)O[C@H](c5ccoc5)[C@@]4(C)CCC23)C1(C)C (some centres unmarked) [DGA, deoxygedunol acetate, reference compound], the “primary screen result” value [3] was “TRPML1 selective hit”.
C=C1C[C@H]2[C@@H]3C=C(C)C4=CC(=O)CC[C@]4(C)[C@H]3CC[C@]2(C)[C@@]1(OC(C)=O)C(C)=O [MGA, melengestrol acetate, reference compound] was tested, and the “primary screen result” value [3] was “TRPML1 selective hit”, the “TRPML1 versus TRPML3 selectivity” value [3] was “highly TRPML1-selective” and the IC50 [2] was 19 µM and 18.6 µM.
O=C(O)CCCCCCCCCCCC[C@@H]1C=CCC1 [chaulmoorgic acid, reference compound] was tested, and the “primary screen result” value [3] was “TRPML1 selective hit”.
With CC(C)CCC[C@@H](C)[C@H]1CC[C@H]2[C@@H]3CC=C4C[C@@H](O)CC[C@]4(C)[C@H]3CC[C@]12C [cholesterol, reference compound] the “inhibitory effect on TRPML3” value [1] was “no effect” and the “inhibitory effect on TRPML1” value [2] was “no effect”.
In the case of C[C@]12CCC3c4ccc(OS(=O)(=O)[O-])cc4CCC3C1CC[C@H]2O.[Na+] (some centres unmarked) [estradiol-3-sulfate sodium salt, reference compound], the “TRPML1-inhibitory activity, SAR summary” value [2] is reported as “eliminated TRPML1-inhibitory activity”.
With COc1ccc2c(c1)CC[C@@H]1[C@@H]2CC[C@]2(C)C(=O)CC[C@@H]12 [estrone 3-methyl ether, reference compound] the “inhibitory effect on TRPML3” value [1] was “no effect” and the “inhibitory effect on TRPML1” value [2] was “no effect”.
C[C@]12CC[C@@H]3c4ccc(O)cc4CC[C@H]3[C@@H]1CCC2=O [estrone, reference compound] was tested, and the “inhibitory effect on TRPML3” value [1] was “no effect” and the “inhibitory effect on TRPML1” value [2] was “no effect”.
In the case of C#C[C@]1(O)CC[C@H]2[C@@H]3CCc4cc(O)ccc4[C@H]3CC[C@@]21C [ethinylestradiol, reference compound], the “TRPML1 versus TRPML3 selectivity” value [3] is reported as “stronger inhibitory effects on TRPML1 than on TRPML3” and the “TRPML1-inhibitory activity, SAR summary” value [2] is reported as “only weakly active”.
In the case of C[C@]12CC[C@@H]3c4ccc(O)cc4C[C@@H](CCCCCCCCC[S+]([O-])CCCC(F)(F)C(F)(F)F)[C@H]3[C@@H]1CC[C@@H]2O (some centres unmarked) [fulvestrant, reference compound], the “inhibitory effect on TRPML3” value [1] is reported as “no effect” and the “inhibitory effect on TRPML1” value [2] is reported as “no effect”.
In the case of C[C@]12CCC(=O)C=C1CC[C@@H]1[C@@H]2[C@@H](O)C[C@@]2(C)[C@H]1CC[C@]2(O)C(=O)CO [hydrocortisone, reference compound], the “inhibitory effect on TRPML3” value [1] is reported as “no effect” and the “inhibitory effect on TRPML1” value [2] is reported as “no effect”.
In the case of C#C[C@]1(O)CC[C@H]2[C@@H]3CCc4cc(OC)ccc4[C@H]3CC[C@@]21C [mestranol, reference compound], the “TRPML1 versus TRPML3 selectivity” value [3] is reported as “stronger inhibitory effects on TRPML1 than on TRPML3”, the “inhibitory effect on TRPML1” value [2] is reported as “strongest effect” and the “TRPML1-inhibitory activity, SAR summary” value [2] is reported as “considerable activity”.
For CC(=O)[C@H]1CC[C@H]2[C@@H]3CCC4=CC(=O)CC[C@]4(C)[C@H]3CC[C@]12C [progesterone, reference compound], the “inhibitory effect on TRPML1” value [2] was “much weaker inhibitory effects” and the IC50 [2] was 12 µM.
With C[C@]12CC[C@H]3[C@@H](CCC4=CC(=O)CC[C@@]43C)[C@@H]1CC[C@@H]2O [testosterone, reference compound] the “inhibitory effect on TRPML1” value [2] was “much weaker inhibitory effects”.
